The text below walks through data of US20130296412A1, “Artemisinin-Like Derivatives with Cytotoxic and Anti-Angiogenic Properties” (DAFRA PHARMA N.V., priority 2010, published 2013).

One data set concerns zebrafish embryos. Briefly: Tg(fli1:EGFP) zebrafish embryo in vivo angiogenesis assay. On the procedure: Tg(fli1:EGFP) zebrafish, which express enhanced green fluorescent protein (GFP) in their endothelial cells, were used as an in vivo model for angiogenesis. At 20 hours post-fertilization (hpf), zebrafish embryos (10 per well/condition) were bathed in fish media, containing a concentration range of each of the compounds or control. Compounds had been dissolved as stock solutions in DMSO, stored at room temperature, and serially diluted in fish media prior to use. The anti-angiogenic tyrosinase kinase inhibitor SU5416 (Pfizer), and a vehicle-alone control containing the maximum concentration of DMSO were used as controls in all experiments.
In the first sets of experiments, a broad range of concentrations were used to identify the maximum tolerable dose, based on toxicity to the embryos, visualized directly by light microscopy. Subsequent experiments were performed a minimum of two times. Live analyses of the embryos were performed under light and fluorescence microscopy at 28 hpf and 48 hpf to monitor viability, overall morphology, and pattern of swimming. Angiogenesis was evaluated visually by fluorescence microscopy.
The developmental growth and patterning of the dorsal aorta, posterior cardinal vein, intersomitic vessels (ISV), and vascular plexus (VP) were monitored, as was the heart rate, and blood flow.
Eight compounds (4, 7, 8, 9, 10, 11, 12 and 15) were compared to artesunate for their anti-angiogenic potential using an in vivo zebrafish embryo model system (Table III blow). DMSO at concentrations of 0.5, 1, and 2% was used as vehicle control. No effects were observed on overall morphology, heart rate, blood flow, or angiogenesis in control embryos. The anti-angiogenic agent SU5416 was used as a positive control.

A further data set relates to HUVEC cells. Description: VEGF-induced HUVEC proliferation/viability assay (WST1). The following applies: starvation medium EGM-2EV. It counts as cell-based, human. On the procedure: Single donor HUVEC cells were purchased from Lonza (Breda, Netherlands). Cells were seeded at 5,000 cells per well in 96-well microtiterplates in EGM-2EV medium (Invitrogen). Upon adherence the cells were gently washed twice with PBS and starved overnight in EGM-2EV medium with reduced FBS content (0.1%; starvation medium).
After 96 hrs, cell growth was quantified using the WST1 Rapid cell proliferation kit (Calbiochem), and was expressed in percentage of the control value (VEGF alone). Experiments were carried out in triplets.
To further evaluate the anti-angiogenic potential of the present novel compounds, proliferation and survival of human umbilical vein endothelial cells (HUVECs) treated with VEGF and two compounds that were very active in the zebrafish model were assayed.
On the technique in general: Tetrazolium assays rely on reduction of a dye to a coloured formazan, in cell work by metabolically active cells.

In the next data set the target is P-glycoprotein (P-gp) (Homo sapiens, UniProt P08183).
P-glycoprotein (P-gp), sequence (P08183 whole entry): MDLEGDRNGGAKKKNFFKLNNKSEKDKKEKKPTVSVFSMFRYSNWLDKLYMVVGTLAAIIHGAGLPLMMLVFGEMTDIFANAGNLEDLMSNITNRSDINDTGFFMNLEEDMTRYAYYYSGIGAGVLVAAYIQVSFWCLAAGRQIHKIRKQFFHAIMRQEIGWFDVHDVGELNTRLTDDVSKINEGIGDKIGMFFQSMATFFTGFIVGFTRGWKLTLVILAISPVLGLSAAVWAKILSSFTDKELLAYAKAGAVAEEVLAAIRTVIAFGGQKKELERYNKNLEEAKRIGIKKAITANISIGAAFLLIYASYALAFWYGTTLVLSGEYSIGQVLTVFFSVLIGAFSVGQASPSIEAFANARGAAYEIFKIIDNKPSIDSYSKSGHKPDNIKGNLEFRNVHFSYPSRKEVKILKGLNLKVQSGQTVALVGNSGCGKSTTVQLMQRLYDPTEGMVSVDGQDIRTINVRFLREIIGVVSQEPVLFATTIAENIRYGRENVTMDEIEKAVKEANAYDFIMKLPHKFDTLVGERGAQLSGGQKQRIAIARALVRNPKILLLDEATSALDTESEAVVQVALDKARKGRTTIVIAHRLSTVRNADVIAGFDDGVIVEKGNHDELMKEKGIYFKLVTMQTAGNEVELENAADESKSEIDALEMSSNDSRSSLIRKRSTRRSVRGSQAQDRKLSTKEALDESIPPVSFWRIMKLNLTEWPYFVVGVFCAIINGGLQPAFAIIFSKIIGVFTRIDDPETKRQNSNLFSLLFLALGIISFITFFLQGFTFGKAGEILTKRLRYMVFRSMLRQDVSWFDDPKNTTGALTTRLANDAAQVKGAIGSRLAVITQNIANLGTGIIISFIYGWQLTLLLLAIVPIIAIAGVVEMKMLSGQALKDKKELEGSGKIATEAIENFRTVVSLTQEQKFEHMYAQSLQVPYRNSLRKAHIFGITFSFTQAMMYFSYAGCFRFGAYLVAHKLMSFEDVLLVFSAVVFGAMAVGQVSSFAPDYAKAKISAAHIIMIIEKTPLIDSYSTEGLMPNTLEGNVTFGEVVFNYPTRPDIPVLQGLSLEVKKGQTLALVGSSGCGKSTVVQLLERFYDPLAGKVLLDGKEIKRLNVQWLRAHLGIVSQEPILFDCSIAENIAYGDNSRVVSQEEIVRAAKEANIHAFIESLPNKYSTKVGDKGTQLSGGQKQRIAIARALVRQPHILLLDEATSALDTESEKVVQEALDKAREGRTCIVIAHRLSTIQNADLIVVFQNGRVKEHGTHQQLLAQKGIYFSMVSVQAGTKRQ

Protocol for P-glycoprotein (P-gp): The intracellular accumulation of calcein inside the cells is measured by using FACS analysis. The points indicate mean values of fluorescent effect, vertical lines show standard error calculated on the base of two independent experiment replicates. The effect corresponds to a control of cells which were treated only with calcein.
Test compounds were dissolved in DMSO as stock solutions and further dilutions were made with DMEM/HAM's F12 1:1 (Biochrom). […] A range of concentrations of test compound in a volume of 300-600 μL cell suspension were added, followed by a 15 min incubation at 37° C. Calcein-AM (300 μL) (MoBiTec, Göttingen, Germany) in DMEM/HAM's F12 1:1 was added to a final concentration of 1 μM and incubated for 30 min at 37° C.
For the calcein-AM assay using flow cytometry, the cell density of suspensions in DMEM/Ham's F12 1:1 was 2.5×10^7 cells/ml.
Gating on forward and side scatter in concert with propidium iodide staining allowed distinguishing live endothelial cells.
Twenty thousand cells were sorted in each run, and data were processed and analyzed with CellQuest (Franklin Lakes, N.J., USA). All fluorescence signals were corrected for background fluorescence. Calcein-AM auto-hydrolysis was measured in control samples (n=6) without cells.

Take `C[C@H]1[C@H](OC(=O)CCC(=O)O)O[C@@H]2O[C@@]3(C)CC[C@H]4[C@H](C)CC[C@@H]1[C@@]24OO3` [Artesunate, artesunate, reference compound]: the “Dead = number of dead embryos up to 48 hpf” value was 1 with zebrafish embryos (25 μg/ml, N = 20 embryos); 1 with zebrafish embryos (50 μg/ml, N = 20 embryos); 1 in the data set with zebrafish embryos (100 μg/ml, N = 20 embryos); 1 in the data set on zebrafish embryos (200 μg/ml, N = 10 embryos). The “Vasc. Defects = number of surviving embryos with vascular defects” value in the data set on zebrafish embryos (25 μg/ml, N = 20 embryos) was 0; with zebrafish embryos (50 μg/ml, N = 20 embryos) it was 2; in the data set with zebrafish embryos (100 μg/ml, N = 20 embryos), 6; with zebrafish embryos (200 μg/ml, N = 10 embryos), 9. In the data set on zebrafish embryos (zebrafish embryos, concentration range), the “Anti-angiogenic effect (in words)” value is recorded as “dose-dependent anti-angiogenic effects”. Also, in the data set on HUVEC cells, the “Behaviour in cell culture medium” value is given as “precipitation from the cell culture medium”. The “P-gp inhibition judged by calcein fluorescence” value at P-glycoprotein (P-gp) is “do not act as P-gp inhibitors”.
